Among the data in patent publication US8697692B2, “Pyrrolo [3,2-c] pyridine-4-one 2-indolinone protein kinase inhibitors” (Shanghai Hengrui Pharmaceutical Co., Ltd., priority 2006, dated 2014) are IC50 values, retold here.

One test deals with HUVEC cell. The test can be described thus: Cell Proliferation Inhibition VEGF-R2 Assay (SRB method). The conditions noted are these: Homo sapiens; HUVEC cells, 72 hours exposure, Sulforhodamine B; read-out: IC50 (VEGFR/HUVEC). The test is classed as cell-based, homo sapient. An excerpt:
The following in vitro assay may be used to determine the level of activity and effect of different compounds of the present invention on the proliferation inhibition (cell toxic) of endothelium growth factor receptor (VEGFR) high expressing homo […] cancer cell-HUVEC cell. The cellular assay described here measure the compounds of their anti-angiogenesis and proliferation inhibition activity and effect through […] on the cancer cells in vitro. The effect and activity is represented by the IC50 value that kills the cancer cell. […] The homo […] highly express […] are chosen and seeded to 96-well cell culture plate at a suitable concentration (exp 5000 cells/ml medium). The cells then are cultured in carbon dioxide (CO2) incubator till when they confluence to about 85%. Then, the cell culture medium is replaced by fresh one with tested compounds added in it at serial concentrations (general 6 to 7 concentrations). Then the cells are put back to the culture and cultured for continuous 72 hours. 72 hours later, the cell exposed to compounds and control cell are assayed for their proliferation using Sulforhodamine B (SRB) method. […] Dimethyl sulfoxide (Sinophma chemical reagent company, catalog No. T20050806) • b. HUVEC cells (Purchased from Institute of biochemistry and cell biology) • c. […] Acetic Acid (Sinophma chemical reagent company, Catalog No. T20060508) • l. Trichloroacetic Acid (Sinophma chemical reagent company, Catalog No. T20060305) • m. […] Class II A/B3 Biological safety cabinet (ThermoForma Catalog No. HB0053-03) • o. […] Centrifuge (Fisher Scientific Marathon 8 k, Catalog No. 0027-02) • q. Novastar Plate reader (BMG Labtech, Catalog No. 700-0081) • r. […] Growing seeded 96-well plates at 37° C., 5% CO2, till 85% confluence. • 4. Prepare compounds stock solution, using DMSO solve candidate compounds to a concentration of 20 mM. […] Use cell culture medium (in this case, DMEM/F12+10% FBS) to dilute the compounds solution prepared above. Each DMSO serial concentration compound solution is diluted by 20 times with culture medium by adding 5 μl DMSO compound solution to 95 μl culture medium, then mix well by vortex. […] After HUVEC cell has attached to the dish bottom and confluence about 85%, change the culture medium with fresh DMEM/F12 plus 10% FBS. Each well added 180 μl medium, then add 20 μl medium solution of tested compounds prepared at step 5 to each well. For control group cell, add 20 μl culture medium containing 0.5% pure DMSO. […] Each 96-well plate, we can test 3 compounds with a control cell group. • 7. Put the culture plates back to incubator, culture for 72 hours at 37° C., 5% CO2. • 8. 72 hours later, remove cultures from incubator into sterile work area. • 9. Prepare fixative (50% Trichloroacetic Acid-TCA) by adding reagent grade water to the TCA, fix the cells by gently layering 50 μl of cold TCA solution on top of the growth medium. • 10. Incubate plates for 1 hour at 4° C. and then rinse with water several times to remove TCA, serum proteins, etc. Plates are air dried and stored until use. Bland background optical density is measured in wells incubated with growth medium without cells. • 11. Use 10% acetic acid solution to prepare 0.4% Sulforhodamine B solution. Add 50 μl sulforhodamine B solution to each well of 96-well plates. • 12. Allow cells to stain for 30 minutes. • 13. Prepared the wash solution of […] acetic acid. At the end of the staining period, the stain is removed and the cells rinsed quickly with 1% acetic acid. Repeat until unincorporated dye is removed. Keep wash times to a minimum to reduce desorption of protein-bound dye. After being rinsed, the cultures are air dried until no moisture is visible. • 14. The incorporated dye is then solubilized in a volume of Sulforhodamine B assay Solubilization solution (10 mM Tris) equal to the original volume of culture medium. Allow cultures to stand for 5 minutes at room temperature.

In a further test the test system is A431 cell. The test can be described thus: Cell Proliferation Inhibition EGFR Assay (SRB method). The test is classed as cell-based, homo sapient. The conditions noted are these: Homo sapiens, A-431; A431 cells, 72 hours exposure, Sulforhodamine B; read-out: IC50 (A431). An excerpt: The following in vitro assay may be used to determine the level of activity and effect of different compounds of the present invention on the proliferation inhibition (cell toxic) of […] growth factor receptor (EGFR) high expressing homo […] cancer cell-A431 cell. The cellular assay described here measure the compounds of their anti-angiogenesis and proliferation inhibition activity and effect through EGFR on the cancer cells in vitro. The effect and activity is represented by the IC50 value that kills the cancer cell. […] The homo […] highly express EGFR are chosen and seeded to 96-well cell culture plate at a suitable concentration (exp 5000 cells/ml medium). The cells then are cultured in carbon dioxide (CO2) incubator till when they confluence to about 85%. Then, the cell culture medium is replaced by fresh one with tested compounds added in it at serial concentrations (general 6 to 7 concentrations). Then the cells are put back to the culture and cultured for continuous 72 hours. 72 hours later, the cell exposed to compounds and control cell are assayed for their proliferation using Sulforhodamine B (SRB) method. Compounds IC50 on tested cells are calculated by the data of inhibition rates of serial concentrations of the tested compounds. • a. Dimethyl sulfoxide (Sinophma chemical reagent company, catalog No. T20050806) • b. A431 cells (Purchased from Institute of biochemistry and cell biology) • c. Falcon 100 mm cell culture plates (Baton Dickison Labware, Baton Dickison and company, • Catalog No. 18677) • d. coming 96-well culture cluster (Corning Incorporated, Catalog No. 3599) • e. Fisher Pipette (Fisher scientific, Catalog No. 03-692-164) • f. DMEM/F12 cell medium (Gibco, Catalog No. 12400-024) • g. Fetal bovine serum, origin from Australia (Gibco, Catalog No. 10099-141) • h. […] Sulforhodamine B (Sigma, Catalog No. 3520-42-1) • k. Acetic Acid (Sinophma chemical reagent company, Catalog No. T20060508) • l. Trichloroacetic Acid (Sinophma chemical reagent company, Catalog No. T20060305) • m. Tris base (Amresco, Catalog No. 0826) • n. Class II A/B3 Biological safety cabinet (ThermoForma Catalog No. HB0053 03) • o. Series II water jacketed CO2 incubator (ThermoForma Model: 3111) • p. Centrifuge (Fisher Scientific Marathon 8 k, Catalog No. 0027-02) • q. Novastar Plate reader (BMG Labtech, Catalog No. 700 0081) • r. Orbital Shaker (Qilinbeier, Catalog No. TS-1) Protocol: […] Growing seeded 96-well plates at 37° C., 5% CO2, till 85% confluence. • 4. Prepare compounds stock solution, using DMSO solve candidate compounds to a concentration of 20 mM. […] Use cell culture medium (in this case, DMEM/F12+10% FBS) to dilute the compounds solution prepared above. Each DMSO serial concentration compound solution is diluted by 20 times with culture medium by adding 5 μl DMSO compound solution to 95 μl culture medium, then mix well by vortex. This promise that the DMSO concentration at that the A431 cell will exposed to will not surpass 0.5%. • 6. […] Each well added 180 μl medium, then add 20 μl medium solution of tested compounds prepared at step 5 to each well. For control group cell, add 20 μl culture medium containing 0.5% pure DMSO. […] Each 96-well plate, we can test 3 compounds with a control cell group. • 7. Put the culture plates back to incubator, culture for 72 hours at 37° C., 5% CO2. • 8. 72 hours later, remove cultures from incubator into sterile work area. • 9. Prepare fixative (50% Trichloroacetic Acid-TCA) by adding reagent grade water to the TCA, fix the cells by gently layering […] of cold TCA solution on top of the growth medium. • 10. Incubate plates for 1 hour at 4° C. and then rinse with water several times to remove TCA, serum proteins, etc. Plates are air dried and stored until use. Bland background optical density is measured in wells incubated with growth medium without cells. • 11. Use 10% acetic acid solution to prepare 0.4% Sulforhodamine B solution. Add 50 μl sulforhodamine B solution to each well of 96-well plates. • 12. […]
For orientation: The SRB assay estimates cell density from bound dye.

Take `CCN(CC)CCN1CCc2[nH]c(/C=C3\C(=O)Nc4c(NC=O)cc(F)cc43)c(C)c2C1=O` [Example 5, N-{3-[5-(2-Diethylamino-ethyl)-3-methyl-4-oxo-4,5,6,7-tetrahydro-1H-pyrrolo[3,2-c]pyridine-2-ylmethylene]-5-fluoro-2-oxo-2,3-dihydro-1H-indol-7-yl}-formamide]: the results for the IC50 in the test with HUVEC cell and in the test on A431 cell were 10.5 µM and 1.38 µM, respectively. The corresponding values for `CCN(CC)CCN1CCc2[nH]c(/C=C3\C(=O)Nc4c(N)cc(F)cc43)c(C)c2C1=O` [Example 4] are 3.6 µM and 12.6 µM. For `CCN(CC)CCN1CCc2[nH]c(/C=C3\C(=O)Nc4ccc(NC=O)cc43)c(C)c2C1=O` [Example 33, N-{3-[5-(2-Diethylamino-ethyl)-3-methyl-4-oxo-4,5,6,7-tetrahydro-1H-pyrrolo[3,2-c]pyridine-2-ylmethylene]-2-oxo-2,3-dihydro-1H-indol-5-yl}-formamide] the same measures were 0.67 µM and 0.84 µM. Turning to `CCN(CC)CCN1CCc2[nH]c(/C=C3\C(=O)Nc4ccc(-c5ccc(OC)cc5)cc43)c(C)c2C1=O` [Example 38, 5-(2-Diethylamino-ethyl)-2-[5-(4-methoxy-phenyl)-2-oxo-1,2-dihydro-indol-3-ylidenemethyl)-3-methyl-1,5,6,7-tetrahydro-pyrrolo[3,2-c]pyridin-4-one], the IC50 came out at 1.28 µM in the test on HUVEC cell and 3.89 µM in the test on A431 cell. The corresponding values for `Cc1c(/C=C2\C(=O)Nc3cc(N)c(F)cc32)[nH]c2c1C(=O)N(CCN1CCCC1)CC2` [Example 14, 2-(6-Amino-5-fluoro-2-oxo-1,2-dihydro-indol-3-ylidenemethyl)-3-methyl-5-(2-pyrrolidin-1-yl-ethyl)-1,5,6,7-tetrahydro-pyrrolo[3,2-c]pyridin-4-one] are 1.05 µM and 10.7 µM. The corresponding values for `CCN(CC)CCN1CCc2[nH]c(/C=C3\C(=O)Nc4cc(N)c(F)cc43)c(C)c2C1=O` [Example 7, 2-(6-Amino-5-fluoro-2-oxo-1,2-dihydro-indol-3-ylidenemethyl)-5-(2-diethylamino-ethyl)-3-methyl-1,5,6,7-tetrahydro-pyrrolo[3,2-c]pyridin-4-one] are 1.38 µM and 10.5 µM. For `CCN(CC)CCN1CCc2[nH]c(/C=C3\C(=O)Nc4cc(NC(C)=O)c(F)cc43)c(C)c2C1=O` [Example 9, N-{3-[5-(2-Diethylamino-ethyl)-3-methyl-4-oxo-4,5,6,7-tetrahydro-pyrrolo[3,2-c]pyridine-2-ylmethylene]-5-fluoro-2-oxo-2,3-dihydro-1H-indol-6-yl}-acetamide] the same measures were 5.8 µM and 9.29 µM. For `CCN(CC)CCN1CCc2[nH]c(/C=C3\C(=O)Nc4cc(NC=O)c(F)cc43)c(C)c2C1=O` [Example 8, N-{3-[5-(2-Diethylamino-ethyl)-3-methyl-4-oxo-4,5,6,7-tetrahydro-1H-pyrrolo[3,2-c]pyridine-2-ylmethylene]-5-fluoro-2-oxo-2,3-dihydro-1,1-indol-6-yl}-formamide], the IC50 in the test on HUVEC cell stood at 3.14 µM; with A431 cell, 0.37 µM. As to `Cc1c(/C=C2\C(=O)Nc3ccc(NC=O)cc32)[nH]c2c1C(=O)N(CCN1CCOCC1)CC2` [Example 55, N-{3-[3-Methyl-5-(2-morpholin-4-yl-ethyl)-4-oxo-4,5,6,7-tetrahydro-1H-pyrrolo[3,2-c]pyridin-2-ylmethylene]-2-oxo-2,3-dihydro-1H-indol-5-yl}-formamide], the IC50 in the test with HUVEC cell is 3.72 µM. Consider `CCN(CC)CCN1CCc2[nH]c(/C=C3\C(=O)Nc4ccc(NC(C)=O)cc43)c(C)c2C1=O` [Example 11, N-{3-[5-(2-Diethylamino-ethyl)-3-methyl-4-oxo-4,5,6,7-tetrahydro-1H-pyrrolo[3,2-c]pyridine-2-ylmethylene]-2-oxo-2,3-dihydro-1H-indol-5-yl}-acetamide], for which, in the test on HUVEC cell, the IC50 was 0.17 µM.
